This note sets out measurements from PubChem BioAssay AID1259407 (Chemical Carcinogenesis Research Information System (CCRIS), 2018).

The source made the active and inactive calls. No rule for the calls is given here.

For this data set, the system named is CCRIS mutagenicity, Ames/micronucleus/aberration tests. Nature of the data set: CCRIS mutagenicity studies.
Where [1] appears, read: Test System: AMES SALMONELLA TYPHIMURIUM, Strain/Indicator: TA98, Metabolic Activation: HAMSTER, LIVER, S-9, AROCLOR 1254 (30%), Method: PREINCUBATION
The mark [2] stands for this setting: Test System: AMES SALMONELLA TYPHIMURIUM, Strain/Indicator: TA98, Metabolic Activation: NONE, Method: PREINCUBATION
[3] abbreviates: Test System: AMES SALMONELLA TYPHIMURIUM, Strain/Indicator: TA98, Metabolic Activation: RAT, LIVER, S-9, AROCLOR 1254 (30%), Method: PREINCUBATION
Setting [4] is: Test System: AMES SALMONELLA TYPHIMURIUM, Strain/Indicator: TA100, Metabolic Activation: HAMSTER, LIVER, S-9, AROCLOR 1254 (30%), Method: PREINCUBATION
The mark [5] stands for this setting: Test System: AMES SALMONELLA TYPHIMURIUM, Strain/Indicator: TA100, Metabolic Activation: NONE, Method: PREINCUBATION
[6] abbreviates: Test System: AMES SALMONELLA TYPHIMURIUM, Strain/Indicator: TA100, Metabolic Activation: RAT, LIVER, S-9, AROCLOR 1254 (30%), Method: PREINCUBATION

Turning to `COc1cc(N)ccc1C`, the mutagenic call reads like this: under setting [1], “active; positive”; under setting [2], “inactive; negative”; under setting [3], “active; positive”; under setting [4], “active; positive”; under setting [5], “inactive; negative”; under setting [6], “active; positive”.

As for `c1ccc(Nc2ccc3ccccc3c2)cc1`, the mutagenic call is “inactive; negative” (End Point: IN VITRO CHROMOSOMAL ABERRATIONS, Test System: CHINESE HAMSTER LUNG CELLS (CHL), Metabolic Activation: NONE); “active; positive (structural changes)” (End Point: IN VITRO CHROMOSOMAL ABERRATIONS, Test System: CHINESE HAMSTER LUNG CELLS (CHL), Metabolic Activation: RAT, LIVER, S-9, KC-400); “inactive; negative” (End Point: IN VITRO CHROMOSOMAL ABERRATIONS, Test System: CHINESE HAMSTER OVARY CELLS (CHO), Metabolic Activation: NONE); “inactive; negative” (End Point: IN VITRO CHROMOSOMAL ABERRATIONS, Test System: CHINESE HAMSTER OVARY CELLS (CHO), Metabolic Activation: RAT, LIVER, S-9, AROCLOR 1254); “inactive; negative” (End Point: IN VITRO CHROMOSOMAL ABERRATIONS, Test System: CHO CELLS, Metabolic Activation: NONE); “inactive; negative” (End Point: IN VITRO CHROMOSOMAL ABERRATIONS, Test System: CHO CELLS, Metabolic Activation: RAT, LIVER, S-9, AROCLOR 1254). Also, the mutagenic call was “inactive; negative” (Test System: AMES SALMONELLA TYPHIMURIUM, Strain/Indicator: TA97, Metabolic Activation: HAMSTER, LIVER, S-9, AROCLOR 1254 (10%), Method: PREINCUBATION); “inactive; negative” (Test System: AMES SALMONELLA TYPHIMURIUM, Strain/Indicator: TA97, Metabolic Activation: HAMSTER, LIVER, S-9, AROCLOR 1254 (30%), Method: PREINCUBATION); “inactive; negative” (Test System: AMES SALMONELLA TYPHIMURIUM, Strain/Indicator: TA97, Metabolic Activation: HAMSTER, LIVER, S-9, AROCLOR 1254, Method: PREINCUBATION); “inactive; negative” (Test System: AMES SALMONELLA TYPHIMURIUM, Strain/Indicator: TA97, Metabolic Activation: NONE, Method: PREINCUBATION); “inactive; negative” (Test System: AMES SALMONELLA TYPHIMURIUM, Strain/Indicator: TA97, Metabolic Activation: RAT, LIVER, S-9, AROCLOR 1254 (10%), Method: PREINCUBATION); “inactive; negative” (Test System: AMES SALMONELLA TYPHIMURIUM, Strain/Indicator: TA97, Metabolic Activation: RAT, LIVER, S-9, AROCLOR 1254 (30%), Method: PREINCUBATION). Also, the mutagenic call was “inactive; negative” (Test System: AMES SALMONELLA TYPHIMURIUM, Strain/Indicator: TA97, Metabolic Activation: RAT, LIVER, S-9, AROCLOR 1254, Method: PREINCUBATION); “inactive; negative” (Test System: AMES SALMONELLA TYPHIMURIUM, Strain/Indicator: TA98, Metabolic Activation: HAMSTER, LIVER, S-9, AROCLOR 1254 (10%), Method: PREINCUBATION); “inactive; negative” under setting [1]; “inactive; negative” (Test System: AMES SALMONELLA TYPHIMURIUM, Strain/Indicator: TA98, Metabolic Activation: HAMSTER, LIVER, S-9, AROCLOR 1254, Method: PREINCUBATION); “inactive; negative” under setting [2]; “inactive; negative” (Test System: AMES SALMONELLA TYPHIMURIUM, Strain/Indicator: TA98, Metabolic Activation: RAT, LIVER, S-9, AROCLOR 1254 (10%), Method: PREINCUBATION). In addition, the mutagenic call runs as follows: under setting [3], “inactive; negative”; (Test System: AMES SALMONELLA TYPHIMURIUM, Strain/Indicator: TA98, Metabolic Activation: RAT, LIVER, S-9, AROCLOR 1254, Method: PREINCUBATION) “inactive; negative”; (Test System: AMES SALMONELLA TYPHIMURIUM, Strain/Indicator: TA100, Metabolic Activation: HAMSTER, LIVER, S-9, AROCLOR 1254 (10%), Method: PREINCUBATION) “inactive; negative”; under setting [4], “inactive; negative”; (Test System: AMES SALMONELLA TYPHIMURIUM, Strain/Indicator: TA100, Metabolic Activation: HAMSTER, LIVER, S-9, AROCLOR 1254, Method: PREINCUBATION) “inactive; negative”; under setting [5], “inactive; negative”. Besides, the mutagenic call was “inactive; negative” (Test System: AMES SALMONELLA TYPHIMURIUM, Strain/Indicator: TA100, Metabolic Activation: RAT, LIVER, S-9, AROCLOR 1254 (10%), Method: PREINCUBATION); “inactive; negative” under setting [6]; “inactive; negative” (Test System: AMES SALMONELLA TYPHIMURIUM, Strain/Indicator: TA100, Metabolic Activation: RAT, LIVER, S-9, AROCLOR 1254, Method: PREINCUBATION); “inactive; negative” (Test System: AMES SALMONELLA TYPHIMURIUM, Strain/Indicator: TA1535, Metabolic Activation: HAMSTER, LIVER, S-9, AROCLOR 1254 (10%), Method: PREINCUBATION); “inactive; negative” (Test System: AMES SALMONELLA TYPHIMURIUM, Strain/Indicator: TA1535, Metabolic Activation: HAMSTER, LIVER, S-9, AROCLOR 1254 (30%), Method: PREINCUBATION); “inactive; negative” (Test System: AMES SALMONELLA TYPHIMURIUM, Strain/Indicator: TA1535, Metabolic Activation: HAMSTER, LIVER, S-9, AROCLOR 1254, Method: PREINCUBATION). Besides, the mutagenic call (Test System: AMES SALMONELLA TYPHIMURIUM, Strain/Indicator: TA1535, Metabolic Activation: NONE, Method: PREINCUBATION) was “inactive; negative”; the mutagenic call (Test System: AMES SALMONELLA TYPHIMURIUM, Strain/Indicator: TA1535, Metabolic Activation: RAT, LIVER, S-9, AROCLOR 1254 (10%), Method: PREINCUBATION) was “inactive; negative”; the mutagenic call (Test System: AMES SALMONELLA TYPHIMURIUM, Strain/Indicator: TA1535, Metabolic Activation: RAT, LIVER, S-9, AROCLOR 1254 (30%), Method: PREINCUBATION) is “inactive; negative”; the mutagenic call (Test System: AMES SALMONELLA TYPHIMURIUM, Strain/Indicator: TA1535, Metabolic Activation: RAT, LIVER, S-9, AROCLOR 1254, Method: PREINCUBATION) was “inactive; negative”; the mutagenic call (Test System: MOUSE LYMPHOMA, Strain/Indicator: L5178Y (TK+/TK-), Metabolic Activation: NONE, Method: SUSPENSION/PLATE) was “inactive; negative”; the mutagenic call (Test System: MOUSE LYMPHOMA, Strain/Indicator: L5178Y (TK+/TK-), Metabolic Activation: RAT, LIVER, S-9, AROCLOR 1254, Method: SUSPENSION/PLATE) was “active; positive”.

For `COc1nncc2ccncc12`, the mutagenic call is, setting by setting: under setting [2], “inactive; negative”; (Test System: AMES SALMONELLA TYPHIMURIUM, Strain/Indicator: TA98, Metabolic Activation: RAT, LIVER, S-9, PCB, Method: PREINCUBATION) “inactive; negative”; under setting [5], “inactive; negative”; (Test System: AMES SALMONELLA TYPHIMURIUM, Strain/Indicator: TA100, Metabolic Activation: RAT, LIVER, S-9, PCB, Method: PREINCUBATION) “inactive; negative”.

`NC(=O)N/N=C/c1ccco1`: the mutagenic call (Test System: E. COLI, Strain/Indicator: WP2 UVRA, Metabolic Activation: NONE, Method: SPOT) was “active; positive”.
